For `Cc1c(C(F)(F)F)cnn(-c2cc(OCC3CCCCC3)c(Cl)cc2F)c1=O`, the melting point was determined as 90.2 °C.

`Nc1scc2c(C(=O)O)nn(-c3ccc(Br)cc3)c(=O)c12` came in with a melting point greater than 300 °C.

`CCCCCCCc1ccc(C(=O)CCCC(=O)O)cc1` showed a melting point of 101 °C.

On to `CN(C)C(=O)Cc1cn(Cc2ccccc2)c2ccc(I)cc12`, for which the melting point lay in the range of 167 to 168 °C.

`N#Cc1ccc(-c2cn(-c3ccc(C#N)cc3)c(SCc3cccnc3)n2)cc1` showed a melting point of 218 to 225 °C.

`CN(C)C=C(C#N)C(=O)Nc1cc(F)ccc1F` displayed a melting point of 175 to 176 °C.

In the case of `CNCC#CC1=Cc2ccccc2Sc2ccc(Cl)cc21`, the melting point was 92 to 94 °C.

For `Cc1cc2c(cc1C)C(C(F)(F)F)(C(F)(F)C(F)(F)F)c1cc(C)c(C)cc1O2`, the melting point was in the range of 139 to 140 °C.

`COc1ccc(C(O)CN)cc1OC` (stereo not drawn) had a melting point of 80 to 81 °C.

Consider `CCn1c(N)nc2cc(CN3CCN(C(c4ccccc4)c4ccccc4)CC3)ccc21`, for which the melting point was 214 °C.

In the case of `COc1cccc(-c2ccnc3c(C(N)=O)ncn23)c1`, the melting point was in the range of 249 to 252 °C.

For the compound `COCCOc1ccc(O)c(C(=O)O)c1`, the melting point lay in the range of 115 to 116 °C.

For `CC1(C)C(=O)Nc2ccc(C#N)cc2N(CC2CC2)C1=O`, the melting point is 234 to 236 °C.

For `COc1ccc2[nH]cc(C=C3SC(=S)N(CC(=O)O)C3=O)c2c1`, the melting point amounted to 266 °C.

For `CN1CCC(Oc2ccc(F)cc2C(N)=O)C1` (stereo not drawn), the melting point lay in the range of 90 to 93 °C.

Consider `CC(C)CNc1cccnc1N1CCN(C(=O)c2ccc(C(=O)NC(C)C)cn2)CC1`, for which the melting point lay in the range of 132 to 134 °C.

In the case of `C=C(Cc1ccccc1)C(=O)NN1CCNCC1`, the melting point was determined as 78 °C.

`CC(C)n1c(C=O)c(-c2ccc(F)cc2)c(-c2ccccc2)c1C(=O)NCCc1cccnc1`: the melting point lay in the range of 192 to 194 °C.

`COc1cc2c(cc1OCc1ccccc1)C(O)CN(Cc1cc(OC)c(OC)c(OC)c1)C2` (stereo not drawn) displayed a melting point of 126 to 127 °C.

Regarding `CCC(=O)OCC(=O)C1(OC(C)=O)CCC2C3CC(C)C4=CC(=O)CCC4(C)C3C(O)CC21C` (stereo not drawn), the melting point lay within 99 to 103 °C.

In turn, `CC1=C(C(=S)Cc2ccccc2)C(c2ccccc2)C2=C(N1)c1ccccc1C2=O` (stereo not drawn) had a melting point of 226 to 228 °C.

Consider `Nc1cccc(SC(CCc2ccc(Cl)cc2)Cn2ccnc2)c1` (stereo not drawn), for which the melting point fell in the range of 89 to 91 °C.

Take `Cc1c(C2=CCC(Cc3ccccc3)(N(C)C)CC2)[nH]c2ccc(OC(F)(F)F)cc12` (stereo not drawn): the melting point lay within 74 to 75 °C.

Compound `CC(C)(Cn1c(CO)nc2c(N)nc3ccccc3c21)C(N)=O` gave a melting point of 201 to 203 °C.

Consider `COc1cc(COc2nn(C)cc2C(=O)O)ccc1OCc1nc(-c2ccccc2)oc1C`, for which the melting point lay in the range of 169 to 170 °C.

The compound `Cn1c(=O)c(C#N)c(N2CCN(C(=O)c3ccco3)CC2)c2cc(F)ccc21` gave a melting point of 263 °C.

Compound `CCOP(=O)(/C=C/c1ccc(C(=O)OC)cc1)OCC` showed a melting point of 60 to 65 °C.

For `CCOC(=O)C(c1ccncc1)C(c1ccccc1)c1ccc(OC)c(OC2CCCC2)c1` (stereo not drawn), the melting point was in the range of 165 to 166 °C.

As for `CCN(Cc1csc(N)c1C(=O)c1ccc(Cl)cc1)c1ccccc1`, the melting point was 130 to 132 °C.

On to `Cc1cccc(Nc2cc(Cl)nc(SCC(=O)NC(C)CO)n2)c1C` (stereo not drawn), for which the melting point was in the range of 170 to 172 °C.

In the case of `CC(=O)OCC1OC(n2c3ccccc3c3c4c(c5c6cccnc6[nH]c5c32)C(=O)N(CO)C4=O)C(OC(C)=O)C(OC(C)=O)C1OC(C)=O` (stereo not drawn), the melting point is 264 to 266 °C.

Take `COc1ccc2c(c1)c1cc(OC)ccc1c1[nH]c(S(=O)(=O)C(F)(F)F)nc21`: the melting point lay in the range of 228 to 231 °C.

`COc1ccc(SCCCCSc2ccc(OC)cc2)cc1` had a melting point of 102 to 103 °C.

On to `CON=C[C@H]1NC(=O)[C@H]1NC(=O)OCc1ccccc1`, for which the melting point fell in the range of 170 to 171 °C.

As to `CC(C)(C)NC(=O)C(C#N)C(=O)C1CC1` (stereo not drawn), the melting point was 97 to 98.5 °C.

As for `CN1C(=O)COc2c(C(=O)O)cc([N+](=O)[O-])cc21`, the melting point lay in the range of 256 to 259 °C.

The compound `Nc1cc(I)c(I)cc1N` came in with a melting point of 135 to 136 °C.

The compound `Cc1c(NC(=O)c2ccc(C(C)(C)C)cc2)nc2ccc(-n3ccnc3)nn12` yielded a melting point of 302 to 303 °C.

Compound `CC[C@H](C)[C@@H](CO)NC(=O)C[C@H](O)[C@H](CC(C)C)NC(=O)[C@H](CC(C)C)NC(=O)[C@H](Cc1cccc2ccccc12)NC(=O)OCc1ccccc1` registered a melting point of 206 to 212 °C.

As to `Cc1ccccc1N1CCc2c(C)nc3c(C)cccc3c21`, the melting point lay within 126 to 128 °C.

`C[C@H]1Oc2ccc(F)cc2NC(=O)[C@H]1NC(=O)OC(C)(C)C` registered a melting point of 141 to 148 °C.

In the case of `CCOC(=O)N1Cc2ccccc2P1(C)=O` (stereo not drawn), the melting point fell in the range of 102 to 104 °C.

As to `Cc1nnc(NC(=O)C2=C(O)c3ccc4ccccc4c3S(=O)(=O)N2C)s1`, the melting point lay in the range of 252 to 255 °C.

`NC(=O)c1cc2n(c1)CCc1ccccc1C2=O` registered a melting point of 228 °C.

`CN1C(=O)CN=C(c2ccccc2)c2cc(CN)ccc21`: the melting point was found to be 201 °C.

The compound `COc1ccc(Cl)cc1CC1CNC(=O)CN(C(=O)Nc2cccc(NC(C)=O)c2)C1=O` (stereo not drawn) displayed a melting point of 130 to 131 °C.

`CC(C)(OCc1cc2cc(C(F)(F)F)ccc2n1S(=O)(=O)c1ccc2ncsc2c1)C(=O)O`: the melting point was in the range of 98 to 100 °C.

As for `CS(=O)c1ncc2ccc(=O)[nH]c2n1` (stereo not drawn), the melting point lay within 237 to 242 °C.

Compound `COc1ccc(-c2nn(Cc3ccc(Cl)cc3)c(=O)cc2-c2ccncc2)cc1` displayed a melting point of 175 to 176 °C.

With `CCOC(=O)N1Cc2[nH]c3ccc(F)cc3c2C1`, the melting point was in the range of 248 to 249 °C.

`CS(=O)(=O)c1ccc(-c2oc3ccccc3c(=O)c2-c2ccccn2)cc1` yielded a melting point of 203 to 204 °C.

`Nc1cc(Cl)cc2c(Cl)ccnc12` returned a melting point of 132 to 134 °C.

As to `CC1SC(c2cccnc2)N(c2ccccc2F)C1=O` (stereo not drawn), the melting point was found to be 112 °C.

Take `CCCCOc1ccc(C(=O)Nc2ccc3cc(CN4CCN(C)CC4)cnc3c2C)c(F)c1`: the melting point was found to be 155 °C.

`Brc1ccccc1-c1nnnn1C(c1ccccc1)(c1ccccc1)c1ccccc1`: the melting point was 160 to 162 °C.

As for `CCCN(CCCc1c[nH]c2ccc(F)cc12)C1COc2ccc3ncccc3c2C1` (single isomer, unassigned; (+)), the melting point worked out at 106 °C.

`c1ccc2c(c1)Cc1cccnc1O2` showed a melting point of 87 to 88 °C.

Compound `CCCCSc1cc(N)c([N+](=O)[O-])cc1N` showed a melting point of 129 °C.

Compound `COC(=O)c1cncc(OC)n1` showed a melting point of 73 °C.

With `COC[C@H]1CCCN1C(=O)c1cc(-c2ccccc2)c(=O)n2c1-c1sccc1C2`, the melting point lay in the range of 150 to 152 °C.

On to `Oc1ccc(-c2nc3cc(O)ccc3o2)c(Cl)c1`, for which the melting point lay within 253 to 255 °C.

`Brc1ccc2c(c1)C(c1ccncc1)=Cc1ccccc1O2` registered a melting point of 195 to 197 °C.

The compound `CN(C)CC1=Cc2ccc(C(=O)Nc3ccc(Br)cc3)cc2CC1` displayed a melting point of 175 to 179 °C.

Compound `Nc1ccc(C(=O)O)c(C(=O)O)c1` registered a melting point of 188 °C.

For the compound `Cc1cc(-c2ccc(Cl)cc2)nc2c(C(=O)O)cnn12`, the melting point fell in the range of 233 to 235 °C.

Regarding `C#CCSc1ccccc1C=CCN(O)C(N)=O`, the melting point was 141 to 142 °C.

`Cc1ccc(C)c(C(=O)NCCC23CC4CC(CC(C4)C2)C3)c1` came in with a melting point of 153 °C.

`Cc1ccc(C2CC(n3ccnc3)c3ccccc3N2)cc1` (stereo not drawn) returned a melting point of 152 to 154 °C.

In the case of `CC1(C)CC(SCc2c(C(F)(F)F)nn(-c3ccccc3)c2Cl)=NO1`, the melting point was in the range of 89 to 90 °C.

In turn, `CN(C)c1ccc(C=CC(O)c2cnc3sc4c(n23)CCCCC4)cc1` (stereo not drawn) came in with a melting point of 168 to 170 °C.

`N=C(NO)c1ccc(-c2ccc(-c3nc4cc(C(=N)NO)ccc4[nH]3)cc2)nc1` gave a melting point of 305 to 308 °C.

Consider `CCCNC(=O)C(Cc1ccc2c(c1)c(Cc1ccc(C(=O)OC)cc1OC)cn2CCC)C(C)C` (stereo not drawn), for which the melting point is 123 to 125 °C.

As for `C[C@]1(CN2CCN(C(=O)OCc3ccc(C(F)(F)F)cc3)CC2)Cn2cc([N+](=O)[O-])nc2O1`, the melting point was in the range of 140 to 142 °C.

Regarding `O=C(CN1C(=O)c2ccccc2C1=O)Nc1ccccc1Nc1ccccc1`, the melting point amounted to 191 °C.

`COC(=O)C1CC(=O)n2c3c(c4cc(F)ccc42)CCNC31` (stereo not drawn) came in with a melting point of 172 °C.

For the compound `Cc1onc(-c2ccccc2)c1-c1[nH]c2ccccc2c1CCN(C)C`, the melting point lay in the range of 142 to 144 °C.

With `CCCS(=O)(=O)c1cccnc1S(=O)(=O)NC(=O)Nc1nc(OC)cc(OC)n1`, the melting point fell in the range of 168 to 170 °C.

`Clc1ccc2sc(=NCCc3c[nH]c4ccccc34)sc2c1`: the melting point lay within 145 to 147 °C.

In the case of `CC(=O)OC1CSC(Oc2cccnc2C(C)=O)C(OC(C)=O)C1OC(C)=O` (stereo not drawn), the melting point amounted to 168 °C.

In turn, `O=c1[nH]c(CCc2ccccc2OCc2ccccc2)ccc1-c1nnn[nH]1` displayed a melting point of 211 to 213 °C.

Turning to `CC(=O)NCc1ccc(-c2csc(NC(C)=O)n2)s1`, the melting point worked out at 251 °C.

For `CS(=O)(=O)C1Cc2cc(Cl)ccc2C1O` (stereo not drawn), the melting point came out at 163 °C.

Turning to `N#Cc1cc(N)ccc1CN1CCC(N2CCOCC2)CC1`, the melting point was 162 to 165 °C.

On to `CC(C)c1nc(CN)n(C)c1Sc1cccc([N+](=O)[O-])c1`, for which the melting point is 77 to 78 °C.

Consider `COc1ccc(-n2nc(C(C)C)cc2-c2ccc(OCCNC(N)=O)cc2)cn1`, for which the melting point was in the range of 106 to 107 °C.

Turning to `O=C(Oc1ccc(C(=C2CCCCC2)c2ccc(OC(=O)c3ccccc3)c(OC(=O)c3ccccc3)c2)cc1OC(=O)c1ccccc1)c1ccccc1`, the melting point was 176 °C.

Turning to `CCOC(=O)CCCn1c(Nc2c(C)noc2C)nc2c(Cl)ccc(C(CC)CC)c21`, the melting point fell in the range of 135 to 138 °C.

The compound `COc1cc(-n2nc(C(F)(F)F)cc2-c2ccc(-c3ccco3)cc2)ccc1S(N)(=O)=O` had a melting point of 207 °C.
